Patent US9132130B2, “Purine derivative and antitumor agent using same” (ZENYAKU KOGYO KABUSHIKI KAISHA, priority 2009, dated 2015)

Experiments:
Assay type in all cases: cell-based
[1] = tested on: WiDr cells (human colon cancer cells); assay: in vitro antitumor activity test, WiDr cells, XTT colorimetry; conditions: cultured 72 hours
Procedure: (§1) WiDr cells (human colon cancer cells) subcultured in a culture medium composed of a MEM medium added with 10% fetal bovine serum, 25 mM HEPES and 0.1 mg/ml kanamycin under the conditions of 37° C. and 5% carbon dioxide gas were made into single floating cells by treating with trypsin/EDTA, and a single cell suspension of 3×10^4 cells per 1 ml was prepared using the MEM medium (added with 10% fetal bovine serum, 25 mM HEPES and 0.1 mg/ml kanamycin). After dissolving the test compounds in DMSO, they were diluted in a RPMI 1640 medium (added with 10% fetal bovine serum, 25 mM HEPES and 0.1 mg/ml kanamycin) and prepared so that the concentrations were 2.0×10^−9 to 2.0×10^−4 M.
(§2) 0.1 ml of the cell suspension was placed into each well of 96-well microplates, cultured for 24 hours to allow the cells to adhere to the microplates, then 0.1 ml of the sample solutions were added, and cultured for 72 hours at 37° C. in 5% carbon dioxide gas.
(§3) Afterwards, the level of growth inhibition at various sample concentrations was obtained using XTT colorimetry, and concentrations at which growth was inhibited by 50% (GI50 values [μM]) were calculated.

[2] = tested on: B16F10 cells (mouse melanoma [malignant melanoma] cells); assay: in vitro antitumor activity test, B16F10 cells, XTT colorimetry; conditions: B16-F10, cultured 72 hours
Procedure: as §1, §2, §3
(§4) In addition, cells other than WiDr cells that were used, and the condition for preparing each single cell suspension were as follows.
B16F10 cells (mouse melanoma [malignant melanoma] cells): 1×10^4 cells/ml

[3] = tested on: P388 cells (mouse leukemia cells); assay: in vitro antitumor activity test, P388 cells, XTT colorimetry; conditions: cultured 72 hours
Procedure: P388 cells (mouse leukemia cells) passaged in the abdominal cavity of DBA/2 mice were extracted with ascitic fluid, and cultured in a RPMI 1640 medium (added with 10% fetal bovine serum, 25 mM HEPES, 0.1 mg/ml kanamycin and 5 μM 2-hydroxyethyldisulfide) at 37° C. in 5% carbon dioxide gas. After culturing for 16 hours, floating P388 cells were made into a single cell suspension of 4×10^4 cells per 1 ml using the same RPMI 1640 medium as given above. The test substances were dissolved in DMSO, then diluted in a RPMI 1640 medium (added with 10% fetal bovine serum, 25 mM HEPES and 0.1 mg/ml kanamycin) and prepared so that the concentrations were 2.0×10^−9 to 2.0×10^−4 M.
0.1 ml of the cell suspension was placed into each well of 96-well microplates, then 0.1 ml of the sample solutions were added, and cultured for 72 hours at 37° C. in 5% carbon dioxide gas.
as §3

[4] = tested on: A549 cells (human lung cancer cells); assay: in vitro antitumor activity test, A549 cells, XTT colorimetry; conditions: cultured 72 hours
Procedure: as §1, §2, §3, §4
A549 cells (human lung cancer cells): 2×10^4 cells/ml

[5] = tested on: PC-3 cells (human prostate cancer cells); assay: in vitro antitumor activity test, PC-3 cells, XTT colorimetry; conditions: PC-3 human prostate cancer cells, cultured 72 hours
Procedure: as §1, §2, §3, §4
PC-3 cells (human prostate cancer cells): 2×10^4 cells/ml

GI50 [1] [nM] | GI50 [2] [nM] | GI50 [3] [nM] | GI50 [4] [nM] | GI50 [5] [nM] | SMILES
140 | 380 | 70 | 100 | 100 | CCc1nc2c(N3CCOCC3)nc(SCc3ccc(OC)c(C#N)c3)nc2n1C [Compound 51, 2-(3-cyano-4-methoxybenzylsulfanyl)-8-ethyl-9-methyl-6-morpholino-9H-purine]
920 | 1340 | 670 | 580 | 650 | CCc1nc2c(N3CCOCC3)nc(SCc3ccc(OC)c(NC(C)=O)c3)nc2n1C [Compound 27, 2-(3-acetylamino-4-methoxybenzylsulfanyl)-8-ethyl-9-methyl-6-morpholino-9H-purine]
1190 | 1610 | 950 | 1250 | 640 | CCc1nc2c(N3CCN(N=O)C(C)C3)nc(SCc3ccc(OC)cc3)nc2n1C (stereo in doubt) [Compound 22, 8-ethyl-2-(4-methoxybenzylsulfanyl)-9-methyl-6-[(3S)-3-methyl-4-nitrosopiperazin-1-yl]-9H-purine]
70000 | 22600 | 22500 | > 100000 | > 100000 | Sc1ncnc2nc[nH]c12 [Compound A, 6-mercaptopurine, reference compound]
1510 | 250 | 90 | 160 | 380 | C/C=C/c1nc(SCc2ccc(OC)c(N)c2)nc2c1ncn2C [Compound 173, 2-(3-amino-4-methoxybenzylsulfanyl)-9-methyl-6-(1-trans-propenyl)-9H-purine]
290 | 370 | 300 | 430 | 310 | CCOc1ccc(CSc2nc(N3CCOCC3)c3nc(CC)n(CC)c3n2)cc1F [Compound 117, 8,9-diethyl-2-(4-ethoxy-3-fluorobenzylsulfanyl)-6-morpholino-9H-purine]
80 | 140 | 80 | 100 | 110 | CCc1nc2c(N3CCOCC3)nc(SCc3ccc(OC)c(C#N)c3)nc2n1CC [Compound 94, 2-(3-cyano-4-methoxybenzylsulfanyl)-8,9-diethyl-6-morpholino-9H-purine]
1100 | 1200 | 910 | 1100 | 360 | CCc1nc2c(N3CCOCC3)nc(SCc3ccc(OC)c(Br)c3)nc2n1C [Compound 78, 2-(3-bromo-4-methoxybenzylsulfanyl)-8-ethyl-9-methyl-6-morpholino-9H-purine]
370 | 560 | 220 | 270 | 470 | C/C=C/c1nc(SCc2ccc(OC)c([N+](=O)[O-])c2)nc2c1ncn2C [Compound 171, 2-(4-methoxy-3-nitrobenzylsulfanyl)-9-methyl-6-(1-trans-propenyl)-9H-purine]
80 | 110 | 80 | 100 | 50 | CCc1nc2c(N(C)C)nc(SCc3ccc(OC)c(F)c3)nc2n1C [Compound 71, 6-dimethylamino-8-ethyl-2-(3-fluoro-4-methoxybenzylsulfanyl)-9-methyl-9H-purine]
4100 | 980 | 260 | 3300 | 3200 | C=Cc1nc(SCc2ccc(OC)cc2)nc2c1ncn2C [Compound 165, 2-(4-methoxybenzylsulfanyl)-9-methyl-6-vinyl-9H-purine]
80 | 80 | 40 | 60 | 90 | CCc1nc2c(N3C=COCC3)nc(SCc3ccc(OC)c(F)c3)nc2n1C [Compound 157, 6-(2,3-dihydro[1,4]oxadin-4-yl)-8-ethyl-2-(3-fluoro-4-methoxybenzylsulfanyl)-9-methyl-9H-purine]
1020 | 1430 | 380 | 890 | 620 | CCc1nc2c(N3CCOCC3)nc(SCCCc3ccc(OC)cc3)nc2n1C [Compound 50, 8-ethyl-2-[3-(4-methoxyphenyl)propylsulfanyl]-9-methyl-6-morpholino-9H-purine]
3380 | 1400 | 740 | 700 | 1040 | CCOc1ccc(CSc2nc(N3C=COCC3)c3ncn(CC)c3n2)cc1N [Compound 156, 2-(3-amino-4-ethoxybenzylsulfanyl)-6-(2,3-dihydro-[1,4]oxadin-4-yl)-9-ethyl-9H-purine]
260 | 340 | 200 | 120 | 160 | CCc1nc2c(N3CCOCC3)nc(SCc3ccc(OC)c(F)c3)nc2n1C [Compound 14, 8-ethyl-2-(3-fluoro-4-methoxybenzylsulfanyl)-9-methyl-6-morpholino-9H-purine]
310 | 380 | 380 | 480 | 450 | CCNc1nc(SCc2ccc(OC)cc2)nc2c1ncn2C [Compound 64, 6-ethylamino-2-(4-methoxybenzylsulfanyl)-9-methyl-9H-purine]
460 | 840 | 330 | 520 | 890 | COc1ccc(CSc2nc(N(C)C(C)=O)c3ncn(C)c3n2)cc1 [Compound 61, 6-(N-acetyl-N-methylamino)-2-(4-methoxybenzylsulfanyl)-9-methyl-9H-purine]
830 | 280 | 90 | 120 | 150 | CNc1nc(SCc2ccc(OC)c(N)c2)nc2c1ncn2C [Compound 45, 2-(3-amino-4-methoxybenzylsulfanyl)-9-methyl-6-methylamino-9H-purine]
280 | 630 | 250 | 400 | 540 | COc1ccc(CSc2nc(N3CC=CC3)c3ncn(C)c3n2)cc1 [Compound 130, 2-(4-methoxybenzylsulfanyl)-9-methyl-6-(3-pyrrolin-1-yl)-9H-purine]
70 | 100 | 60 | 50 | 60 | COc1ccc(CSc2nc(N(C)OC)c3ncn(C)c3n2)cc1F [Compound 137, 2-(3-fluoro-4-methoxybenzylsulfanyl)-6-(N-methoxy-N-methylamino)-9-methyl-9H-purine]
40 | 80 | 20 | 50 | 40 | COc1ccc(CSc2nc(N(C)C)c3ncn(C)c3n2)cc1C#N [Compound 87, 2-(3-cyano-4-methoxybenzylsulfanyl)-6-dimethylamino-9-methyl-9H-purine]
1160 | 1800 | 870 | 2280 | 820 | CCc1nc2c(N3CCOCC3)nc(SCc3ccc(OC)cc3OCc3ccccc3)nc2n1C [Compound 15, 2-(2-benzyloxy-4-methoxybenzylsulfanyl)-8-ethyl-9-methyl-6-morpholino-9H-purine]
310 | 100 | 30 | 70 | 50 | CCOc1ccc(CSc2nc(NC)c3ncn(C)c3n2)cc1N [Compound 107, 2-(3-amino-4-ethoxybenzylsulfanyl)-9-methyl-6-methylamino-9H-purine]
780 | 300 | 110 | 150 | 150 | COc1ccc(CSc2nc(N3C=COCC3)c3ncn(C)c3n2)cc1N [Compound 150, 2-(3-amino-4-methoxybenzylsulfanyl)-6-(2,3,-dihydro-[1,4]oxadin-4-yl)-9-methyl-9H-purine]
350 | 1380 | 490 | 470 | 530 | COc1ccc(CSc2nc(N3C=COCC3)c3ncn(C)c3n2)cc1[N+](=O)[O-] [Compound 149, 6-(2,3-dihydro-[1,4]oxadin-4-yl)-2-(4-methoxy-3-nitrobenzylsulfanyl)-9-methyl-9H-purine]
